Results on one compound are retold here after publication PMC8512870, “Anti-Fungal Hevein-like Peptides Biosynthesized from Quinoa Cleavable Hololectins” (Molecules, 2021).

The term IC50 denotes the concentration needed to halve the response being measured.

The test system of data set [1] is aminopeptidase I. The data set is described as follows: Proteolytic stability, aminopeptidase I. Type of data set: in vitro ADME. As to conditions: recommended buffer, RP-HPLC peak area and MALDI-TOF MS, n = 3. As to the method: (§1) Assessments of thermal, acidic and proteolytic stability were performed as previously described. Purified chenotide cQ2 was incubated at the stated conditions and recommended buffer solution. At each time interval, samples were aliquoted in triplicate and RP-UPLC was performed. The area under the peak was used to determine the amount of chenotide present before and after treatment.

A short description of data set [2]: Stability in horse serum. Type of data set: in vitro ADME. As to conditions: RP-HPLC peak area and MALDI-TOF MS, n = 3. The method, then:
as §1

Data set [3] in a line: Stability in human serum. The format is in vitro ADME. As to conditions: RP-HPLC peak area and MALDI-TOF MS, n = 3. As to the method:
as §1

For data set [4], the system named is pepsin. The data set is described as follows: Proteolytic stability, pepsin. The format is in vitro ADME. As to conditions: recommended buffer, RP-HPLC peak area and MALDI-TOF MS, n = 3. The method, then: as §1
Data set [5] has as its system Curvularia lunata (CICC 40301). The data set is described as follows: Microbroth dilution anti-fungal assay. Type of data set: cell-based. As to conditions: spores 1 × 10^5 cells/mL in half-strength potato dextrose broth, 25 °C, 24 h, crystal violet, absorbance 570 nm, listed as chenotide cQ2, read-out: IC50 against Curvularia lunata. The method, then:
(§2) The half-maximal inhibitory concentration levels (IC50) of peptides were determined by a microbroth dilution assay. Fungal spores were harvested from a 4-day-old actively growing fungal plate and suspended in half-strength potato dextrose broth. Spore suspensions (1 × 10^5 cells/mL) were mixed with peptides at varying concentrations in 96-well microplates and incubated at 25 °C for 24 h. The cells were then fixed with 100% methanol for 15 min and stained for 45 min with crystal violet dye. Excess dye was removed with MilliQ water. Elution was performed using 1:1 (v/v) ethanol/0.1 N HCl. The absorbance was measured at 570 nm.
(In broth dilution the organism is exposed to a series of concentrations in liquid medium.)

The test system of data set [6] is Rhizoctonia solani (CICC 40259). The data set is described as follows: Microbroth dilution anti-fungal assay. The format is cell-based. As to conditions: spores 1 × 10^5 cells/mL in half-strength potato dextrose broth, 25 °C, 24 h, crystal violet, absorbance 570 nm, listed as chenotide cQ2, read-out: IC50 against Rhizoctonia solani. The method, then: as §2
The subject of data set [7] is Alternaria alternata (CICC 2465). The data set is described as follows: Microbroth dilution anti-fungal assay. The format is cell-based. As to conditions: spores 1 × 10^5 cells/mL in half-strength potato dextrose broth, 25 °C, 24 h, crystal violet, absorbance 570 nm, listed as chenotide cQ2, read-out: IC50 against Alternaria alternata. The method, then: as §2
For data set [8], the system named is Fusarium oxysporum (CICC 2532). The data set is described as follows: Microbroth dilution anti-fungal assay. Type of data set: cell-based. As to conditions: spores 1 × 10^5 cells/mL in half-strength potato dextrose broth, 25 °C, 24 h, crystal violet, absorbance 570 nm, listed as chenotide cQ2, read-out: IC50 against Fusarium oxysporum. As to the method: as §2

SMILES strings stand for the structures. Where a SMILES comes first, the peptide text is derived from it. Bridges are numbered along the chain shown (N, C = ends).

In the case of `CC(C)C[C@@H]1NC(=O)CNC(=O)CNC(=O)[C@@H]2CCCN2C(=O)[C@@H]2CSSC[C@@H]3NC(=O)[C@H](Cc4ccccc4)NC(=O)CNC(=O)[C@H](Cc4ccccc4)NC(=O)[C@H](CCCCN)NC(=O)[C@H](CO)NC(=O)[C@H](CSSC[C@H](NC(=O)[C@H](CCC(=O)O)NC(=O)CNC(=O)[C@H](C)N)C(=O)N[C@@H](C(C)C)C(=O)N[C@@H](CCCNC(=N)N)C(=O)NCC(=O)N[C@@H](CCCNC(=N)N)C(=O)N2)NC(=O)[C@H](CSSC[C@@H](C(=O)NCC(=O)NCC(=O)O)NC(=O)[C@H](Cc2ccc(O)cc2)NC(=O)[C@H](C)NC(=O)[C@@H]2CCCN2C(=O)CNC(=O)[C@H](CO)NC(=O)CNC3=O)NC1=O` [cQ2] (H-AGECVRGRCPGGLCCSKFGFCGSGPAYCGG-OH; disulfide 4-15, 9-21, 14-28), in data set [1], the “Peptide retained after aminopeptidase I treatment” value is more than 80%. In addition, in data set [2], the “Peptide retained after horse serum treatment” value was more than 80%. Besides, in data set [3], the “Peptide retained after human serum treatment” value is reported as more than 80%. Besides, in data set [4], the “Peptide retained after pepsin treatment” value was more than 80%. In addition, the IC50 was approximately 5 µM in data set [5], approximately 3 µM in data set [6], approximately 9 µM in data set [7] and approximately 0.3 µM in data set [8].
